Like-named read-outs stand apart in the source and are kept apart here.
Key:
[1] = system: LPS-activated rat neonatal microglia; assay: PMA-stimulated TXB2 generation by LPS-activated rat neonatal microglia (immunoassay); assay type: cell-based; conditions: for IC50 / inhibition at 10 µM: Rattus norvegicus, Microglia; for IC50: PMA 1 μM, 70 min, LPS 0.3 ng/mL 17 h, manzamine added 15 min before; for PMA-stimulated TXB2 release, % of control / PMA-stimulated TXB2 released / inhibition at 10 µM: at 10 μM; for inhibition at 10 µM: read-out: maximum inhibition of PMA-stimulated TXB2 generation
Protocol: (§1) All experiments were performed with adherence to the National Institutes of Health guidelines on the use of experimental animals and with protocols approved by Midwestern University's Research and Animal Care Committee. To isolate rat neonatal microglia, cerebral cortices of 1–2 day-old Sprague-Dawley rats purchased from Harlan (Indianapolis, IN) were surgically removed and placed in cold DMEM + 10% FBS + 120 U/ml P and 12 μg/ml S, the meninges carefully removed, and brain tissue minced and dissociated with trypsin-EDTA at 36°C for 3–5 min. The mixed astroglial cell suspension was plated in either 75- or 162-cm^2 vented cell culture flasks with DMEM medium supplemented with 10% FBS + 120 U/ml P + 12 μg/ml S and grown in a humidified 5% CO2 incubator at 36°C for 12–14 days. […] Microglia were characterized as described earlier.
(§2) To study the effects of manzamines A, B, C, D, E and F on the generation of TXB2 and O2^-, rat neonatal microglia (2 × 10^5 cells/24-well cell culture clusters) were treated to the following protocol. Seventeen hours prior to the experiments, microglia cells were treated with LPS (0.3 ng/ml) in a final volume of 1 ml of DMEM supplemented with 10% FBS + 120 U/ml P + 12 μg/ml. […] O2^-, TXB2 and lactate dehydrogenase (LDH) release were assayed as described below.
(§3) Following the incubation of LPS-activated microglia with HBSS, manzamines or vehicle as explained above, PMA- (1 μM) or OPZ- (0.5 mg/mL)triggered TXB2 generation in the culture supernatants was measured using immunoassays (Cayman Chemical, Ann Arbor, MI) as indicated by the manufacturer's protocol. Results were expressed as pg/mL produced after 70 min of PMA or OPZ stimulation.

[2] = system: LPS-activated rat neonatal microglia; assay: OPZ-stimulated TXB2 generation by LPS-activated rat neonatal microglia (immunoassay); assay type: cell-based; conditions: for IC50 / inhibition at 10 µM: Rattus norvegicus, Microglia; for IC50: OPZ 0.5 mg/mL, 70 min, LPS 0.3 ng/mL 17 h; for OPZ-stimulated TXB2 generation, % of control / OPZ-stimulated TXB2 released / inhibition at 10 µM: at 10 μM
Protocol: as §1, §2, §3

[3] = system: LPS-activated rat neonatal microglia; assay: PMA-stimulated O2^- generation by LPS-activated rat neonatal microglia (SOD-inhibitable FCC reduction); assay type: cell-based; conditions: for IC50 / inhibition at 10 µM: Rattus norvegicus, Microglia; for IC50: PMA 1 μM, 70 min, LPS 0.3 ng/mL 17 h
Protocol: as §1, §2
(§4) O2^- generation was determined by the SOD-inhibitable reduction of FCC [23]. […] All experimental treatments were run in triplicate and in a final volume of 1 ml. Changes in FCC absorbance were measured at 550 nm using a Beckman DU-650 spectrophotometer.

[4] = system: LPS-activated rat neonatal microglia; assay: OPZ-stimulated O2^- generation by LPS-activated rat neonatal microglia (SOD-inhibitable FCC reduction); assay type: cell-based; conditions: for IC50: OPZ 0.5 mg/mL, 70 min, LPS 0.3 ng/mL 17 h; for effect on OPZ-stimulated O2^- generation: even at 10 μM
Protocol: as §1, §2, §4

[5] = target: hypoxanthine-xanthine oxidase system (Homo sapiens, UniProt P47989); assay: Cell-free O2^- generation by hypoxanthine-xanthine oxidase system (scavenging test); assay type: biochemical; conditions: for O2^- generated by hypoxanthine-xanthine oxidase system: control (DMSO) 12 ± 1.1, test concentration not given
Protocol: A standard hypoxanthine-xanthine oxidase system was used as a cell-free source of O2^-. O2^- was generated by incubation of purified xanthine oxidase (0.02 Units/ml) with hypoxanthine (1.5 mM) at 37°C [21]. O2^- formation was assessed spectrophotometrically as the increase in absorbance at 550 nm associated with the SOD (30 U/mL)-inhibitable reduction FCC (50 μM) as described above for rat microglia O2^- generation and expressed in nmoles/30 minutes.

[6] = system: LPS-induced microglia PGE2 synthesis; conditions: cited from earlier work
[7] = system: LPS-activated rat neonatal microglia; assay: LDH release (cytotoxicity) from LPS-activated rat neonatal microglia; assay type: cell-based
Protocol: as §2, with “μg/ml. Thereafter the media was removed and replaced with 1 ml warm HBSS, one of the manzamines (0.1–10 μM final concentration) or vehicle (DMSO) was added, and the microglia incubated for fifteen minutes in a humidified 5% CO2 incubator at 35.9°C. After the fifteen minute preincubation period with either manzamines or vehicle, PMA (1 μM) or OPZ (0.5 mg/mL) was added and microglia incubated for 70 minutes in a humidified 5% CO2 incubator at 35.9°C in the presence of the manzamines or vehicle.” for “μg/ml.”
Lactate dehydrogenase (LDH) release from microglia was determined spectrophotometrically as described elsewhere. Microglia LDH release was expressed as a percentage of total LDH. Total LDH resulted from 0.1% Triton X-100-lysed microglia cells (intracellular LDH) plus LDH released to the extracellular medium.

[8] = system: activated rat microglia; conditions: read-out: IC50, PMA-stimulated O2^- generation in microglia; cited from earlier work
[9] = set-up: method as in PMID 10817722; conditions: cited from earlier work
[10] = read-out: apparent IC50, LPS-induced microglia PGE2 synthesis

Sequence of hypoxanthine-xanthine oxidase system (P47989 whole entry): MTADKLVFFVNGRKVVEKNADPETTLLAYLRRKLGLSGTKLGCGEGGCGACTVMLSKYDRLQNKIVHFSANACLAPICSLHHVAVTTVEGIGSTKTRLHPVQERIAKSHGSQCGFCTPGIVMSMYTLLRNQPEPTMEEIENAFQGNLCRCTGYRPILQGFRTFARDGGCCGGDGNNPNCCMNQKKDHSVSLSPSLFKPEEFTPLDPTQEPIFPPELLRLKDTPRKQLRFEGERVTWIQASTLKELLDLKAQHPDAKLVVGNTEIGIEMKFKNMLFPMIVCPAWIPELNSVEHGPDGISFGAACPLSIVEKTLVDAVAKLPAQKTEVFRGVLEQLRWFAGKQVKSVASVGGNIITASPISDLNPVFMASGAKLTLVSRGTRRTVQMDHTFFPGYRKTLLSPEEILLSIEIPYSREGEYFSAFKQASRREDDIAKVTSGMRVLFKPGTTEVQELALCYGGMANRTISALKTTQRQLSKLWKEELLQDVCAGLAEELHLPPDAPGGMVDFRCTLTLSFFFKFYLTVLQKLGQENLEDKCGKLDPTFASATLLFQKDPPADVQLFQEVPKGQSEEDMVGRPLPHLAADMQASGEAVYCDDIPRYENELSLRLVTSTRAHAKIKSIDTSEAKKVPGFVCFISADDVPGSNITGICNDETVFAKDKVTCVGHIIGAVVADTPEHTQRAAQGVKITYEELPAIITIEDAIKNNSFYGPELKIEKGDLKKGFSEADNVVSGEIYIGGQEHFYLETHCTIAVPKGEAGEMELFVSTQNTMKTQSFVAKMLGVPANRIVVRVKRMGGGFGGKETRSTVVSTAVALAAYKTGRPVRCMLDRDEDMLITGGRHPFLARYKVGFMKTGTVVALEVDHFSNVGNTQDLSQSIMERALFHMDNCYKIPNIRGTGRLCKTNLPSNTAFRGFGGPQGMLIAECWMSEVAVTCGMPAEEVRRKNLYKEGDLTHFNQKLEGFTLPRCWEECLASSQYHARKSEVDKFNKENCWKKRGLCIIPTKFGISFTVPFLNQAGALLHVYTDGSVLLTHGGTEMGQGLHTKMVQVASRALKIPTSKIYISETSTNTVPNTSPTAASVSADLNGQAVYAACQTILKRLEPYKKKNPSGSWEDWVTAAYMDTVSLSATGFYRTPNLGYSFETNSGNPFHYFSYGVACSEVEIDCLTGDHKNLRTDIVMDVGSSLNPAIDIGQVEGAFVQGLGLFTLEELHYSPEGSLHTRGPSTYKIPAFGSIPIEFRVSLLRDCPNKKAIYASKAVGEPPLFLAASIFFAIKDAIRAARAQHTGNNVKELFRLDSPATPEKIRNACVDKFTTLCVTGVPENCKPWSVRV

Row | Molecule | IC50 [1] [µM] | PMA-stimulated TXB2 released [1] | IC50 [2] [µM] | OPZ-stimulated TXB2 released [2] | IC50 [3] [µM] | IC50 ([4]; Rattus norvegicus, Microglia) [µM] | O2^- generated by hypoxanthine-xanthine oxidase system [5] [nmoles/30 min] | other results
1 | C1=C\CCCCN(CCc2nccc3c2[nH]c2ccccc23)CCCC/1 [MZC, manzamine C] | 2.98 | 677 ± 293 pg of TXB2 per 200,000 microglia per 70 min | 3.34 | 1,345 ± 160 pg of TXB2 per 200,000 microglia per 70 min | 3.43 | 9.3 | 20.7 ± 3.1 | PMA-stimulated TXB2 release, % of control [1]: 19.6 % of control; OPZ-stimulated TXB2 generation, % of control [2]: 29.8 % of control; PMA-stimulated O2^- release, % of control ([3]; at 10 μM): 36.1 % of control; PMA-stimulated O2^- released ([3]; at 10 μM): 3.7 ± 2.2 nmol of O2^- per 200,000 microglia per 70 min; OPZ-stimulated O2^- generation, % of control ([4]; at 10 μM): 41.6 % of control; OPZ-stimulated O2^- released ([4]; at 10 μM): 3.9 ± 0.3 O2^- nmol per 200,000 microglia per 70 min
2 | COc1ccc2c(c1)c(CC(=O)O)c(C)n2C(=O)c1ccc(Cl)cc1 [indomethacin] |  |  |  |  |  |  |  | IC50 [6, 10]: 0.001 µM
3 | CC(=O)Oc1ccccc1C(=O)O [acetylsalicylic acid] |  |  |  |  |  |  |  | IC50 ([6]; COX-1 inhibitor, read-out: IC50, LPS-induced microglia PGE2 synthesis): 3.12 to 10 µM
4 | O[C@]12C=C(C3NCCc4c3[nH]c3ccccc43)[C@@H]3CCN(CCCC/C=C\CC1)C[C@@]31C[C@@H]3/C=C\CCCCN3[C@H]12 (stereo partly drawn) [MZD, manzamine D] | 0.23 | 611 ± 342 pg of TXB2 per 200,000 microglia per 70 min | > 10 | 3,613 ± 469 pg of TXB2 per 200,000 microglia per 70 min | < 0.1 | > 10 | 22.2 ± 2 | PMA-stimulated TXB2 release, % of control [1]: 18.8 % of control; OPZ-stimulated TXB2 generation, % of control [2]: 79.9 % of control; PMA-stimulated O2^- release, % of control ([3]; at 0.1 μM): 14 % of control; PMA-stimulated O2^- released ([3]; at 0.1 μM): 0.7 ± 0.7 nmol of O2^- per 200,000 microglia per 70 min; effect on OPZ-stimulated O2^- generation [4]: did not affect
5 | C1=C\CC[C@]23CN4CCCC/C=C\CC[C@@]5(O[C@H]5[C@@H](c5nccc6c5[nH]c5ccccc56)[C@@H]2CC4)[C@@H]3NCCCC/1 [MZB, manzamine B] | 1.6 | 546.3 ± 281 pg of TXB2 per 200,000 microglia per 70 min | 1.44 | 1,160 ± 207 pg of TXB2 per 200,000 microglia per 70 min | 3.16 | 4.17 | 15.3 ± 2.4 | PMA-stimulated TXB2 release, % of control [1]: 15.5 % of control; OPZ-stimulated TXB2 generation, % of control [2]: 25.6 % of control; PMA-stimulated O2^- release, % of control ([3]; at 10 μM): 20 % of control; PMA-stimulated O2^- released ([3]; at 10 μM): 2.14 ± 2.14 nmol of O2^- per 200,000 microglia per 70 min; OPZ-stimulated O2^- generation, % of control ([4]; at 10 μM): 16.5 % of control; OPZ-stimulated O2^- released ([4]; at 10 μM): 1.5 ± 0.7 O2^- nmol per 200,000 microglia per 70 min; concentrations cytotoxic to neonatal brain microglia [7]: above 1 μM
6 | O=C1CCCN2[C@@H](CC1)C[C@]13CN4CCCC/C=C\CC[C@](O)(C=C(c5nccc6c5[nH]c5ccccc56)[C@@H]1CC4)[C@H]23 [MZE, manzamine E] | > 10 | 1,614 ± 628 pg of TXB2 per 200,000 microglia per 70 min | > 10 | 2,594 ± 646 pg of TXB2 per 200,000 microglia per 70 min | > 10 | > 10 | 16.3 ± 2.2 | inhibition at 10 µM [1]: 49.4%; inhibition at 10 µM [2]: 43.1%; inhibition at 10 µM ([3]; at 10 μM): 26.3%; PMA-stimulated O2^- released ([3]; at 10 μM): 8.5 ± 2.1 nmol of O2^- per 200,000 microglia per 70 min; effect on OPZ-stimulated O2^- generation [4]: did not affect
7 | CC(C(=O)O)c1ccc(-c2ccccc2)c(F)c1 (stereo not drawn) [flurbiprofen] |  |  |  |  |  |  |  | IC50 ([6]; COX-1 inhibitor, read-out: apparent IC50, LPS-induced microglia PGE2 synthesis): 0.1 µM
8 | CCCn1cnc2c1c(=O)n(CCCCC(C)=O)c(=O)n2C [propentofylline] |  |  |  |  |  |  |  | IC50 [8]: > 100 µM
9 | superoxide dismutase: superoxide dismutase (from bovine liver), Sigma |  |  |  |  |  |  |  | effect on hypoxanthine-xanthine oxidase O2^- generation [5]: abolished
10 | CS(=O)(=O)Nc1ccc([N+](=O)[O-])cc1OC1CCCCC1 [NS-398] |  |  |  |  |  |  |  | IC50 [6, 10]: 0.001 to 0.005 µM
11 | CO[C@]12C[C@@H](COC(=O)c3cncc(Br)c3)CN(C)[C@@H]1Cc1cn(C)c3cccc2c13 [nicergoline] |  |  |  |  |  |  |  | IC50 [8]: 10 to 15 µM
12 | O=C1CCCN2[C@@H](CC1)C[C@]13CN4CCCC/C=C\CC[C@](O)(C=C(c5nccc6c5[nH]c5c(O)cccc56)C1CC4)[C@H]23 (stereo partly drawn) [MZF, manzamine F] | > 10 | 3,202 ± 1,139 pg of TXB2 per 200,000 microglia per 70 min | > 10 | 3,317 ± 121 pg of TXB2 per 200,000 microglia per 70 min | > 10 | > 10 | 20.1 ± 3.6 | PMA-stimulated TXB2 release, % of control [1]: 104.1 ± 24.7 % of control; inhibition at 10 µM [2]: 26.2%; PMA-stimulated O2^- release, % of control ([3]; at 10 μM): 113 ± 14.5 % of control; PMA-stimulated O2^- released ([3]; at 10 μM): 12.8 ± 1.6 nmol of O2^- per 200,000 microglia per 70 min; inhibition at 10 µM ([4]; Rattus norvegicus, Microglia, at 10 μM, non-statistically significant): 15.7%
13 | C=CCN1C[C@H](C(=O)N(CCCN(C)C)C(=O)NCC)C[C@@H]2c3cccc4[nH]cc(c34)C[C@H]21 [cabergoline] |  |  |  |  |  |  |  | IC50 [8]: > 100 µM
14 | O[C@]12C=C(c3nccc4c3[nH]c3ccccc34)[C@@H]3CCN(CCCC/C=C\CC1)C[C@@]31C[C@@H]3/C=C\CCCCN3[C@H]12 [MZA, manzamine A] | < 0.016 | 78.3 ± 45 pg of TXB2 per 200,000 microglia per 70 min | 3.16 | 1,927 ± 474 pg of TXB2 per 200,000 microglia per 70 min | 0.1 | > 10 | 15.3 ± 4.4 | inhibition at 10 µM [1]: 95.5%; inhibition at 10 µM [2]: 58%; inhibition at 10 µM ([3]; at 10 μM): 55.9 ± 6.1%; OPZ-stimulated O2^- released ([4]; at 10 μM): 9.5 ± 1 O2^- nmol per 200,000 microglia per 70 min; effect on OPZ-stimulated O2^- generation [4]: did not appear to affect; in vivo toxicity [9]: lack of significant in vivo toxicity
